Experimental data published in patent publication US8778966B2, “Quinolinone derivatives as PARP and tank inhibitors” (Janssen Pharmaceutica, NV, priority 2007, dated 2014).

Columns and labels:
HCT116 cells = assay: Mitotic arrest assay on HCT116 cells (phospho-histone H3 Ser10); type: cell-based, human; conditions: Homo sapiens, HCT-116, HCT116 cells; lowest active dose; read-out: Mitotic arrest HCT116 LAD (converted)
Summary of the method: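 Read-out is imaging of phospho-histone H3 Ser10 (Alexa Fluor 488) with Hoechst nuclear counting, after 6 h compound exposure at 37 °C, DMSO ≤0.1%. LAD is the lowest dose at which the blank-corrected value over SD exceeds 5; triplicates, low-count wells excluded.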

PC3 cells = assay: EB1 Comet (microtubule disruption) assay; type: cell-based, human; conditions: Homo sapiens, PC-3, 1 h, 1 hour treatment, read-out: EB1 pLAC (converted)
Summary of the method: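 Readout is loss of Eb1 plus-end foci, scored by immunofluorescence microscopy, in PC3 cells after 1 h compound treatment at 37 °C with 0.6% final DMSO. LAC is defined as the lowest concentration leaving at least 50% of cells without Eb1 foci.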

Structure (SMILES) | minimal effective concentration (HCT116 cells) | minimal effective concentration (PC3 cells)
Cc1cc2ccc(C(C)(C#N)C3CCc4ccccc43)cc2[nH]c1=O (stereo not shown) [Compound 392] | 0.3 µM | 0.316 µM
Cc1cc2ccc([C@](C)(C#N)C3CCc4ccccc43)cc2[nH]c1=O (single isomer, unassigned) [Compound 386] | 0.1 µM | 0.316 µM
CCOc1cccc(CC(C)(C#N)c2ccc3cc(CC)c(=O)[nH]c3c2)c1 (stereo not shown) [Compound 285] | 0.3 µM | 0.316 µM
CCc1cc2ccc(C(C)(C#N)Cc3cc(OC)c(OC)c(OC)c3)cc2[nH]c1=O (stereo not shown) [Compound 289] | 0.1 µM | 0.0316 µM
CCc1cc2c(OC)cc(C(C)(C#N)Cc3nc(OC)cc(OC)n3)cc2[nH]c1=O (single isomer, unassigned) [Compound 230] | 1 µM | 1 µM
Cc1cc2ccc(C(C)(C#N)Cc3cccc(I)c3)cc2[nH]c1=O (stereo not shown) [Compound 256] | 0.1 µM | 0.316 µM
CCc1cc2ccc(C(C#N)(Cc3ccccc3)C3CC3)cc2[nH]c1=O (stereo not shown) [Compound 29] | 1 µM | 1 µM
CCc1cc2ccc(C(C)(C#N)Cc3cc(N(C)C)nc(C)n3)cc2[nH]c1=O (stereo not shown) [Compound 322] | 1 µM | 1 µM
CCc1cc2ccc([C@@](C)(C#N)CCOc3ccc(C#N)cc3)cc2[nH]c1=O (single isomer, unassigned) [Compound 273] | 0.1 µM | 0.1 µM
CCc1cc2ccc(C(C)(C#N)CN(C)Cc3ccc(C#N)cc3)cc2[nH]c1=O (stereo not shown) [Compound 300] | 0.3 µM | 0.1 µM
CCc1cc2ccc(C(C)(C#N)Cc3cc(C(F)(F)F)ccc3F)cc2[nH]c1=O (stereo not shown) [Compound 283] | 0.3 µM | 1 µM
CCc1cc2ccc(C(C)(C#N)Cc3cccc4c3CCN4)cc2[nH]c1=O (stereo not shown) [Compound 237] | 1 µM | 3.16 µM
CCc1cc2ccc(C(C)(C#N)Cc3nc(C#N)cc(N(C)C)n3)cc2[nH]c1=O (stereo not shown) [Compound 318] | 0.3 µM | 0.316 µM
CCc1cc2ccc(C(C)(C#N)Cc3cccc(N(C)CCc4ccccc4)n3)cc2[nH]c1=O.Cl (stereo not shown) [Compound 220] | 3 µM | 3.16 µM
Cc1cc2ccc([C@](C)(C#N)[C@H]3CCc4ccccc43)cc2[nH]c1=O [Compound 387] | 3 µM | 3.16 µM
CCc1cc2ccc(C(C)(C#N)Cc3cc(Cl)nc(OC)c3)cc2[nH]c1=O (stereo not shown) [Compound 351] | 0.1 µM | 0.1 µM
CCc1cc2ccc(C(C#N)(Cc3ccccc3)C(C)C)cc2[nH]c1=O (stereo not shown) [Compound 30] | 3.16 µM | 3.16 µM
